# Data from US7112676B2, “Pyrimido compounds having antiproliferative activity” (Hoffmann-La Roche Inc., priority 2002, dated 2006).
# Columns and labels:
# FGFR = molecular target: T1, FGFR; test: FGFR kinase HTRF assay; type: biochemical; details: 10 μM ATP, read-out: IC50 (μM) - Enzyme Inhibition Assays FGFR
# T1 construct: fused on or other part: GST tag
# Description: (§1) To determine inhibition of KDR, FGFR, EGFR, and PDGFR activity, kinase assays were conducted using an HTRF (Homogeneous Time Resolved Fluorescence) assay. This assay is described in A. J. Kolb et. al., Drug Discovery Today, 1998, 3(7), p 333.
# (§2) Kinase activity assays were performed in 96-well polypropylene plates (Falcon) with a total volume of 90 μL in each well. Each well contained 1 μM KDR substrate (Biotin-EEEEYFELVAKKKK), 1 nM activated KDR, and a test compound with one of 8 assay concentrations ranging from 100 μM to […] (1:5 serial dilution). The kinase activity assay was done in the presence of 100 mM HEPES, pH 7.4, 1 mM DTT, 0.1 mM Na2VO4, 25 mM MgCl2, 50 mM NaCl (from KDR stock solution), 1% DMSO (from compound), 0.3 mM ATP (at Km concentration) and 0.02% BSA. The reaction was incubated at 37° C. for 30 minutes. To stop the KDR reaction, 72 μL of reaction mixture was transferred into a STOP plate containing 18 μL of revelation buffer (20 mM EDTA, 50 mM HEPES, pH 7.4, 0.02% BSA, 10 nM Eu-labelled anti-pY antibody (final conc. 2 nM), and 100 nM streptavidin (final conc. 20 nM)). After mixing, 35 μL of solution was transferred into duplicate wells of a 384-well black plate (Costar), and read at 615/665 nm on a Wallac Victor 5 reader.
# FGFR, EGFR, and PDGFR activity assays were carried out as described above for the KDR activity assay with the following differences. GST-tagged FGFR enzyme was activated at room temperature for 1 hour in the following activation buffer: 100 mM HEPES, pH 7.4, 50 mM NaCl, 20 mM MgCl2, and 4 mM ATP. The kinase activity assay was performed with 1 μM substrate (Biotin-EEEEYFELV), 1.5 nM activated FGFR, and test compound in the presence of 100 mM HEPES, 1 mM DTT, 0.4 mM MgCl2, 0.4 mM MnCl2, 50 mM NaCl, 1% DMSO, 10 μM ATP (Km=8.5 μM for FGFR), 0.1 mM Na2VO4, and 0.02% BSA, in a total volume of 90 μL. The rest of the assay was performed in the same manner as KDR assay.
# (§3) Compound IC50 values were determined from duplicate sets of data, and calculated by using Excel and fitting data to equation Y=[(a−b)/{1+(X/c)^d]+b, where a and b are enzyme activity in the presence of no test inhibitor compound and an infinite amount of inhibitor test compound, respectively, c is the IC50 and d is the hill constant of the compound response. The IC50 value is the concentration of test compound that reduces by 50% the enzyme activity under the test conditions described.
# PDGFR = PDGFR kinase HTRF assay; type: biochemical; details: 2.3 μM ATP, read-out: IC50 (μM) - Enzyme Inhibition Assays PDGFR
# Description: as §1, §2
# (§4) The PDGFR kinase activity assay was performed with 1 μM substrate (Biotin-EEEEYFELV), 1.0 nM PDGFR, test compounds, 100 mM HEPES, pH 7.4, 1 mM DTT, 5 mM MgCl2, 2 mM MnCl2, 1% DMSO, 2.3 μM ATP (Km for PDGFR), 0.1 mM Na2VO4, and 0.02% BSA. The rest of the assay was performed in the same manner as the KDR assay.
# as §3
# KDR = molecular target: T2, KDR (Homo sapiens, UniProt P35968); test: KDR kinase HTRF assay; type: biochemical; details: 0.3 mM ATP, read-out: IC50 (μM) - Enzyme Inhibition Assays KDR
# T2 construct: EEE-tag
# Description: as §1
# Prior to kinase reaction, recombinant EEE-tagged KDR was activated in the presence of activation buffer (50 mM HEPES, pH 7.4, 1 mM DTT, 10% glycerol, 150 mM NaCl, 0.1 mM EDTA, 26 mM MgCl2, and 4 mM ATP). The enzyme was incubated at 4° C. for 1 hour.
# as §2, §3
# FGF-stimulated HUVEC = FGF-stimulated HUVEC proliferation assay (BrdU); type: cell-based; details: Homo sapiens, FGF 5 ng per mL, BrdU labeling, 24 hour exposure, read-out: IC50 (μM) of VEGF and FGF-Stimulated HUVEC Proliferation Assays HUVEC/bFGFR
# Description: (§5) The antiproliferative activity of test compounds of this invention in cell-based assays was evaluated by BrdU assay using the BrdU kit (Roche Biochemicals 1-647-229). Human umbilical vein endothelial cells (HUVEC, Clonetics CC-2519) were cultured in EGM-2 (Clonetics CC-3162) medium and seeded at 10000 cells per well in a volume of 200 μL of EGM-2 (Clonetics CC-3162) media in a 96-well flat bottom plates (Costar 3595) overnight. After 24 hours of growth at 37° C. with 5% CO2, the incubation media was removed slowly by aspiration and the content of each well was washed with 300 μL pre-warmed EBM-2 (Clonetics CC-3156) containing 50 μg per mL of gentamycin and 50 ng per mL of amphotercin-B (Clonetics CC-4083). Subsequently, the remaining media was again aspirated and replaced with 160 μL per well of serum starvation media (EBM-2 supplemented with 1% heat inactivated FBS (Clonetics CC-4102), 50 μg per mL gentamycin and 50 ng per mL of amphotercin-B (Clonetics CC-4083), 10 units per mL of Wyeth-Ayerst heparin (NDC0641-0391-25), and 2 mM L-glutamine (GIBCO 25030-081). After serum starving the cells for 24 hours, 20 μL of test compound at 10× test concentration in serum starvation medium with 2.5% DMSO was added to the appropriate wells. The control wells contained 20 μL of serum starvation medium with 2.5% DMSO. Plates were returned to the incubator for 2 hours. After pre-incubating the cells with the test compounds for 2 hours, 20 μL of growth factors at 10× assay concentration diluted in serum starvation media, FGF at 50 ng per mL, or VEGF (R&D systems 293-VE) at 200 ng per mL were added. The final concentration of FGF in the assay was 5 ng per mL and the final concentration of VEGF in the assays was 20 ng per mL. The growth factor free control wells had 20 μL per well of serum starvation media with the same amount of BSA as the wells with growth factors. The plates were returned to the incubator for an additional 22 hours.
# (§6) After 24 hour exposure to the test compounds, the cells were labeled with BrdU (Roche Biochemicals 1-647-229), by adding 20 μL per well of BrdU labeling reagent that has been diluted (1:100) in serum starvation medium. The plates were then returned to the incubator for 4 hours. The labeling medium was removed by draining the medium onto paper towels. The cells were fixed and DNA denatured by adding 200 μL of fixation/denaturation solution to each well and incubating at room temperature for 45 minutes. The fixation/denaturation solution was drained onto paper towels and to each well was added 100 μL of anti-BrdU-POD and the wells were incubated for 2 hours at room temperature. The antibody solution was removed and the wells were each washed 3–4 times with 300 μl PBS. 100 μL of the TMB substrate solution was added to each well and the wells were incubated at room temperature for 5–8 minutes. The reaction was then stopped by adding 100 μL per well of 1 M phosphoric acid. The plates were read at 450 nm with reference wavelength of 650 nm. The percent inhibition for each test compound was calculated by subtracting the absorbency of the blank (no cells) wells from all wells, then subtracting the division of the average absorbency of each test duplicate by the average of the controls from 1. The final product was then multiplied by 100 (% of inhibition=(1−average absorbency of test duplicate/average of control)100). The IC50 value is the concentration of test compound that inhibits by 50% BrdU labeling, and is a measure of inhibition of cell proliferation. The IC50 is determined from the linear regression of a plot of the logarithm of the concentration versus percent inhibition.
# EGFR = EGFR (Homo sapiens, UniProt P00533); test: EGFR kinase HTRF assay; type: biochemical; details: 0.5 μM ATP, read-out: IC50 (μM) - Enzyme Inhibition Assays EGFR
# Description: as §1, §2
# as §4, with “EGFR” for “PDGFR”, “1.5” for “1.0”, “EGFR,” for “PDGFR,”, “0.5” for “2.3”, “EGFR),” for “PDGFR),”
# as §3
# VEGF-stimulated HUVEC = VEGF-stimulated HUVEC proliferation assay (BrdU); type: cell-based; details: Homo sapiens, VEGF 20 ng per mL, BrdU labeling, 24 hour exposure, read-out: IC50 (μM) of VEGF and FGF-Stimulated HUVEC Proliferation Assays HUVEC/VEFG
# Description: as §5, §6
# EGFR, sequence (P00533 25-1210, species assumed): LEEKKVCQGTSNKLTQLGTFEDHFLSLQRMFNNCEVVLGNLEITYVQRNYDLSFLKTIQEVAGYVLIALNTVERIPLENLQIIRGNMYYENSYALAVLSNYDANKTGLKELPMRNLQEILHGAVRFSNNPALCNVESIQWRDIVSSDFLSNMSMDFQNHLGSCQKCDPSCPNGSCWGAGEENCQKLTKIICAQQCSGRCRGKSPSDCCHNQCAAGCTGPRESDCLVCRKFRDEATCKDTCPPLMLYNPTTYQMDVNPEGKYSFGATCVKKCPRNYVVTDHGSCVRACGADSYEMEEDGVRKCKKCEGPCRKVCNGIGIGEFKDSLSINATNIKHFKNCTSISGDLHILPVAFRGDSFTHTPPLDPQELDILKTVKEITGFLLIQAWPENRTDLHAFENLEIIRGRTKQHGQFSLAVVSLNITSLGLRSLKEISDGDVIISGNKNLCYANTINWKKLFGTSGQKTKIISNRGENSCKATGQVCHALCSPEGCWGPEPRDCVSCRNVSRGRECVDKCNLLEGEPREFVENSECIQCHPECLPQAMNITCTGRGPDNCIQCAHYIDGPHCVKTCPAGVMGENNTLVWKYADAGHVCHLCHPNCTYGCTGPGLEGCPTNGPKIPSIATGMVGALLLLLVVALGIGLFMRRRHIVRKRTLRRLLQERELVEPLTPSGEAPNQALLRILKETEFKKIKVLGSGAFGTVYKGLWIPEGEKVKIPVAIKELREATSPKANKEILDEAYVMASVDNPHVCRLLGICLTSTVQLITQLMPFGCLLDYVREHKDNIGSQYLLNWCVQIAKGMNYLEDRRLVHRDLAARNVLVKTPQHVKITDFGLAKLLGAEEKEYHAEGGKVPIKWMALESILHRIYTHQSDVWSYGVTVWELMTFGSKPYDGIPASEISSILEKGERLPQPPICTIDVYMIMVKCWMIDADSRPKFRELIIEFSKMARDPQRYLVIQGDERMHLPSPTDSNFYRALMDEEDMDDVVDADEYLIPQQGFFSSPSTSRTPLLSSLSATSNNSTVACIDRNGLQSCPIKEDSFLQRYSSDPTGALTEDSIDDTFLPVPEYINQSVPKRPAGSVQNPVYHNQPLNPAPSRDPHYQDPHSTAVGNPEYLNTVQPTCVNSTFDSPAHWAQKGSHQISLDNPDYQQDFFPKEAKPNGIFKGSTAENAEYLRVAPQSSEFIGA
# T2 sequence (P35968 20-1356, species assumed): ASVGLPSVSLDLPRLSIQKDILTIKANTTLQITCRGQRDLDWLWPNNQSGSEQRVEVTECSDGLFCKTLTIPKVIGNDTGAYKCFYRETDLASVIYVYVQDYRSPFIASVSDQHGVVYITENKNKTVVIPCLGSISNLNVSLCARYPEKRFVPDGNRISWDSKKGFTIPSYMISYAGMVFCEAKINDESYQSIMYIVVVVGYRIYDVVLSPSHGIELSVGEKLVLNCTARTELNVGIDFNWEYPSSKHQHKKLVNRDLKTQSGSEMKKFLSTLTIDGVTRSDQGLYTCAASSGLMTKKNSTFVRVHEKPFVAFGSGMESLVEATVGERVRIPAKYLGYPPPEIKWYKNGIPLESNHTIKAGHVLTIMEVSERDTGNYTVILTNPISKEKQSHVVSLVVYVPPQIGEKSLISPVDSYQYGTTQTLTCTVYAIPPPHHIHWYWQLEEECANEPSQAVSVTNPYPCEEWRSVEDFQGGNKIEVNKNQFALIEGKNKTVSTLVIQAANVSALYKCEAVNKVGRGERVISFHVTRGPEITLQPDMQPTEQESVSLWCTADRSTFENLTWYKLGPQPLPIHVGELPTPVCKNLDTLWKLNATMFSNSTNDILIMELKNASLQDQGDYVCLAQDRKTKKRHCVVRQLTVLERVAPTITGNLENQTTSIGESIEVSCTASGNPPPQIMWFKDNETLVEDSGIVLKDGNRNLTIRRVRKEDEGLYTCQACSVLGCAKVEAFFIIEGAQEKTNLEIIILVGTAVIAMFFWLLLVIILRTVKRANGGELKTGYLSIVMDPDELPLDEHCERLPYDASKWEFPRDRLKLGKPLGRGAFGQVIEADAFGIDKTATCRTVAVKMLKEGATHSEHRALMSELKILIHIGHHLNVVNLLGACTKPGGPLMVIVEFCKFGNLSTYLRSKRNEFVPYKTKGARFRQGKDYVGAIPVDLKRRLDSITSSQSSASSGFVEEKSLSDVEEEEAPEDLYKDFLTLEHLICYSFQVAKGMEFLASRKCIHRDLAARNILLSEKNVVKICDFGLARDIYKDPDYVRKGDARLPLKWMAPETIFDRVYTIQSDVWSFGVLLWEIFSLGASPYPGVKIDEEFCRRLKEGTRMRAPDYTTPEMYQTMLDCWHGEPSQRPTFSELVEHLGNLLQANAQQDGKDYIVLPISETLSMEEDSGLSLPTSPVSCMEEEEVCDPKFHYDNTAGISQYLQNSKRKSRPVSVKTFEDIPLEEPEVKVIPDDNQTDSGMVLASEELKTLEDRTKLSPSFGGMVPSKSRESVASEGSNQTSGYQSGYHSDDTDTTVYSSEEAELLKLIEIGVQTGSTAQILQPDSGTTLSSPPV
Structure (SMILES),IC50 (FGFR) [µM],IC50 (PDGFR) [µM],IC50 (KDR) [µM],IC50 (FGF-stimulated HUVEC) [µM],IC50 (EGFR) [µM],IC50 (VEGF-stimulated HUVEC) [µM],melting point [°C]
"COc1ccc(N2C(=O)N([C@@H](C)c3ccccc3)c3nc(Nc4ccccc4)ncc3C2C)cc1 (stereo partly drawn) [Example 18, 3-(4-Methoxy-phenyl)-4-methyl-7-phenylamino-1-[1-(S)-phenyl-ethyl]-3,4-dihydro-1H-pyrimido[4,5-d]pyrimidin-2-one]",< 10,< 10,< 10,< 10,< 10,< 10,–
"COc1ccc(N2C(=O)N([C@@H](C)CO)c3nc(Nc4ccccc4)ncc3C2C)cc1 (stereo partly drawn) [Example 13d, 1-(2-Hydroxy-1-(S)-methyl-ethyl)-3-(4-methoxy-phenyl)-4-methyl-7-phenylamino-3,4-dihydro-1H-pyrimido[4,5-d]pyrimidin-2-one]",–,–,–,–,–,–,165 to 180
"COc1ccc(N2C(=O)N(c3ccccc3)c3nc(Nc4ccccc4)ncc3C2C(C)C)cc1 (racemic) [Example 11e, (±)-4-Isopropyl-3-(4-methoxy-phenyl)-1-phenyl-7-phenylamino-3,4-dihydro-1H-pyrimido[4,5-d]pyrimidin-2-one]",> 10,> 10,> 10,–,< 10,–,229 to 235
"COc1ccc(N2C(=O)N(c3ccccc3)c3nc(Nc4ccccc4)ncc3[C@H]2C)cc1 (single isomer, unassigned) [Example 2]",< 10,< 10,< 10,–,< 10,–,218 to 233
"COc1ccc(N2C(=O)N([C@H](C)CO)c3nc(Nc4ccccc4)ncc3[C@H]2C)cc1 [Example 14f, 1-(2-Hydroxy-1-(R)-methyl-ethyl)-3-(4-methoxy-phenyl)-4-(R)-methyl-7-phenylamino-3,4-dihydro-1H-pyrimido[4,5-d]pyrimidin-2-one]",< 10,< 10,< 10,–,< 10,–,158 to 162
"COc1ccc(N2C(=O)N([C@H]3CC[C@H](O)CC3)c3nc(Nc4ccccc4)ncc3C2C)cc1 (mixture of isomers) [Example 20b, (±)-1-(trans-4-Hydroxy-cyclohexyl)-3-(4-methoxy-phenyl)-4-methyl-7-phenylamino-3,4-dihydro-1H-pyrimido[4,5-d]pyrimidin-2-one]",< 10,< 10,< 10,< 10,< 10,< 10,–
"COc1ccc(N2C(=O)N(c3ccccc3)c3nc(N(C(C)=O)c4ccccc4)ncc3C2C)cc1 (racemic) [Example 19, (±)-N-[6-(4-Methoxy-phenyl)-5-methyl-7-oxo-8-phenyl-5,6,7,8-tetrahydro-pyrimido[4,5-d]pyrimidin-2-yl]-N-phenyl-acetamide]",< 10,< 10,< 10,< 10,< 10,< 10,–
"CCC1c2cnc(Nc3ccccc3)nc2N(c2ccccc2)C(=O)N1c1ccc(OC)cc1 (racemic) [Example 7e, (±)-4-Ethyl-3-(4-methoxy-phenyl)-1-phenyl-7-phenylamino-3,4-dihydro-1H-pyrimido[4,5d]pyrimidin-2-one]",< 10,< 10,< 10,–,< 10,–,172 to 176
"COc1ccc(Cl)c(N2C(=O)N(c3ccccc3)c3nc(Nc4ccccc4)ncc3C2C)c1 (racemic) [Example 12c, (±)-3-(2-Chloro-5-methoxy-phenyl)-4-methyl-1-phenyl-7-phenylamino-3,4-dihydro-1H-pyrimido[4,5-d]pyrimidin-2-one]",< 10,< 10,< 10,–,< 10,–,–
